Measured values reported in PubChem BioAssay (NCI).
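Results reflect a 48-hour exposure of cells in 96-well plates to compound at five concentrations. GI50: concentration for 50% inhibition of growth. TGI: concentration producing complete growth inhibition.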

Legend:
Assay in all cases: DTP human tumour cell line panel, 48 h
COLO 205 colon = test system: COLO 205 colon
CAKI-1 renal = test system: CAKI-1 renal
PC-3 prostate = test system: PC-3 prostate
UO-31 renal = test system: UO-31 renal
NCI-H522 lung = test system: NCI-H522 lung
OVCAR-3 ovarian = test system: OVCAR-3 ovarian
SNB-75 CNS = test system: SNB-75 CNS
OVCAR-5 ovarian = test system: OVCAR-5 ovarian
BT-549 breast = test system: BT-549 breast
RXF 393 renal = test system: RXF 393 renal
NCI-H23 lung = test system: NCI-H23 lung
M14 melanoma = test system: M14 melanoma
NCI/ADR-RES ovarian = test system: NCI/ADR-RES ovarian
SW-620 colon = test system: SW-620 colon
K-562 leukemia = test system: K-562 leukemia
HOP-62 NSCLC = test system: HOP-62 NSCLC
A549 NSCLC = test system: A549 NSCLC
SF-539 CNS = test system: SF-539 CNS
OVCAR-4 ovarian = test system: OVCAR-4 ovarian
NCI-H226 lung = test system: NCI-H226 lung
DU-145 prostate = test system: DU-145 prostate
MALME-3M melanoma = test system: MALME-3M melanoma
SF-295 CNS = test system: SF-295 CNS
HCT-15 colon = test system: HCT-15 colon
SF-268 CNS = test system: SF-268 CNS
HS 578T breast = test system: HS 578T breast
UACC-62 melanoma = test system: UACC-62 melanoma
SK-MEL-2 melanoma = test system: SK-MEL-2 melanoma
EKVX NSCLC = test system: EKVX NSCLC
MDA-MB-231 breast = test system: MDA-MB-231 breast
SK-MEL-28 melanoma = test system: SK-MEL-28 melanoma
MDA-MB-435 = test system: MDA-MB-435
CCRF-CEM leukemia = test system: CCRF-CEM leukemia
SK-MEL-5 melanoma = test system: SK-MEL-5 melanoma
UACC-257 melanoma = test system: UACC-257 melanoma
RPMI-8226 leukemia = test system: RPMI-8226 leukemia
HL-60(TB) leukemia = test system: HL-60(TB) leukemia
ACHN renal = test system: ACHN renal
HOP-92 NSCLC = test system: HOP-92 NSCLC
SK-OV-3 ovarian = test system: SK-OV-3 ovarian
HT29 colon = test system: HT29 colon
NCI-H460 lung = test system: NCI-H460 lung
T-47D breast = test system: T-47D breast
KM12 colon = test system: KM12 colon
IGROV1 ovarian = test system: IGROV1 ovarian

N=C(N)c1ccc(-c2ccc(-c3ccc(F)cc3)s2)nc1
GI50 (COLO 205 colon): 2.12 µM | TGI (COLO 205 colon): 4.76 µM | GI50 (CAKI-1 renal): 1.67 µM | TGI (CAKI-1 renal): 3.06 µM | GI50 (PC-3 prostate): 2.23 µM | TGI (PC-3 prostate): 6.04 µM | GI50 (UO-31 renal): 1.53 µM | TGI (UO-31 renal): 2.87 µM | GI50 (NCI-H522 lung): 2.05 µM | TGI (NCI-H522 lung): 4.63 µM | GI50 (OVCAR-3 ovarian): 1.77 µM | TGI (OVCAR-3 ovarian): 3.26 µM | GI50 (SNB-75 CNS): 1.55 µM | TGI (SNB-75 CNS): 4.05 µM | GI50 (OVCAR-5 ovarian): 1.73 µM | TGI (OVCAR-5 ovarian): 3.3 µM | GI50 (BT-549 breast): 5.11 µM | TGI (BT-549 breast): 30.1 µM | GI50 (RXF 393 renal): 3.84 µM | TGI (RXF 393 renal): 16.9 µM | GI50 (NCI-H23 lung): 2.87 µM | TGI (NCI-H23 lung): 8.99 µM | GI50 (M14 melanoma): 1.79 µM | TGI (M14 melanoma): 3.69 µM | GI50 (NCI/ADR-RES ovarian): 2.72 µM | TGI (NCI/ADR-RES ovarian): 6.86 µM | GI50 (SW-620 colon): 1.84 µM | TGI (SW-620 colon): 3.65 µM | GI50 (K-562 leukemia): 0.374 µM | TGI (K-562 leukemia): 1.75 µM | GI50 (HOP-62 NSCLC): 2.39 µM | TGI (HOP-62 NSCLC): 6.21 µM | GI50 (A549 NSCLC): 2.11 µM | TGI (A549 NSCLC): 4.78 µM | GI50 (SF-539 CNS): 1.75 µM | TGI (SF-539 CNS): 3.2 µM | GI50 (OVCAR-4 ovarian): 1.87 µM | TGI (OVCAR-4 ovarian): 3.67 µM | GI50 (NCI-H226 lung): 10.3 µM | TGI (NCI-H226 lung): 32.9 µM | GI50 (DU-145 prostate): 1.83 µM | TGI (DU-145 prostate): 3.27 µM | GI50 (MALME-3M melanoma): 1.71 µM | TGI (MALME-3M melanoma): 3.21 µM | GI50 (SF-295 CNS): 1.85 µM | TGI (SF-295 CNS): 3.63 µM | GI50 (HCT-15 colon): 1.84 µM | TGI (HCT-15 colon): 3.56 µM | GI50 (SF-268 CNS): 2.51 µM | TGI (SF-268 CNS): 6.98 µM | GI50 (HS 578T breast): 2.72 µM | TGI (HS 578T breast): 8.89 µM | GI50 (UACC-62 melanoma): 1.94 µM | TGI (UACC-62 melanoma): 4.24 µM | GI50 (SK-MEL-2 melanoma): 3.23 µM | TGI (SK-MEL-2 melanoma): 9.95 µM | GI50 (EKVX NSCLC): 4.26 µM | TGI (EKVX NSCLC): 22.9 µM | GI50 (MDA-MB-231 breast): 1.73 µM | TGI (MDA-MB-231 breast): 3.26 µM | GI50 (SK-MEL-28 melanoma): 2.13 µM | TGI (SK-MEL-28 melanoma): 4.45 µM | GI50 (MDA-MB-435): 1.71 µM | TGI (MDA-MB-435): 3.17 µM | GI50 (CCRF-CEM leukemia): 2.46 µM | TGI (CCRF-CEM leukemia): 6.06 µM | GI50 (SK-MEL-5 melanoma): 1.8 µM | TGI (SK-MEL-5 melanoma): 3.24 µM | GI50 (UACC-257 melanoma): 2.2 µM | TGI (UACC-257 melanoma): 5.12 µM | GI50 (RPMI-8226 leukemia): 2.68 µM | TGI (RPMI-8226 leukemia): 6.83 µM | GI50 (HL-60(TB) leukemia): 1.46 µM | TGI (HL-60(TB) leukemia): 3.38 µM | GI50 (ACHN renal): 1.81 µM | TGI (ACHN renal): 3.2 µM | GI50 (HOP-92 NSCLC): 2.02 µM | TGI (HOP-92 NSCLC): 8.58 µM | GI50 (SK-OV-3 ovarian): 11 µM | TGI (SK-OV-3 ovarian): 28.9 µM | GI50 (HT29 colon): 2.13 µM | TGI (HT29 colon): 5.52 µM | GI50 (NCI-H460 lung): 1.88 µM | TGI (NCI-H460 lung): 3.68 µM | GI50 (T-47D breast): 2.18 µM | TGI (T-47D breast): 6.68 µM | GI50 (KM12 colon): 1.92 µM | TGI (KM12 colon): 3.57 µM | GI50 (IGROV1 ovarian): 1.78 µM | TGI (IGROV1 ovarian): 3.61 µM
